According to patent US12286429B2, “5-oxo-1,2,3,5,8,8a-hexahydroindolizine-3-carboxamide derivatives useful as a factor XIa inhibitors” (Janssen Pharmaceutica NV, priority 2021, dated 2025):

Columns and labels:
[1] = molecular target: human plasma kallikrein (Homo sapiens, UniProt P03952); test: Kallikrein inhibition assay utilizing a quenched AMC peptide substrate (FLINT); assay type: biochemical; conditions: 11-point, 3-fold serial dilution, top 1 μM; 30 min preincubation; 2 nM kallikrein; 50 μM Z-Gly-Pro-Arg-AMC; kinetic reads over 30 min
Method in brief: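 Human plasma kallikrein (2 nM final) was pre-incubated 30 min at room temperature with compound (11-point 3-fold series, top 1 μM, 2% DMSO) in Tris pH 7.5, NaCl, CaCl2, BSA, CHAPS buffer. Reaction started with 50 μM Z-Gly-Pro-Arg-AMC (KM 40 μM), and fluorescence (340/440 nm) was read kinetically over 30 min. IC50 came from a 4-parameter logistic fit.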

[2] = molecular target: Factor XIa (Homo sapiens, UniProt P03951); test: Factor XIa inhibition assay utilizing a fluorophore-quencher pair peptide substrate (FLINT); assay type: biochemical; conditions: 11-point, 3-fold serial dilution, top 100 nM; 30 min preincubation; 15 μM 5Fam-KLTRAETV-K5Tamra substrate; kinetic reads over 30 min; read-out: FXIa Inhibition IC50
Method in brief: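 FXIa ([…]) preincubated 30 min with compound (11-point, 3-fold, top 100 nM, 2% DMSO) in Tris pH 7.5, NaCl, CaCl2, BSA, CHAPS; 15 μM 5Fam-KLTRAETV-K5Tamra substrate then added. Fluorescence (485/520 nm) read kinetically over 30 min at room temperature; IC50 by 4-parameter fit.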

Sequence of human plasma kallikrein (P03952 391-638 limits assumed): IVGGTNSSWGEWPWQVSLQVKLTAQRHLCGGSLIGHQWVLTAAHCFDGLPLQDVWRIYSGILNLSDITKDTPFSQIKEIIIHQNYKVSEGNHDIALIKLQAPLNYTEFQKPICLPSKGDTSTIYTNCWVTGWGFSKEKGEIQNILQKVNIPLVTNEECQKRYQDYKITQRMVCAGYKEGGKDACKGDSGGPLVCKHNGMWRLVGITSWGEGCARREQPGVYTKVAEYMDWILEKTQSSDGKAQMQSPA
Sequence of human plasma kallikrein (P03952 20-390 partner limits assumed): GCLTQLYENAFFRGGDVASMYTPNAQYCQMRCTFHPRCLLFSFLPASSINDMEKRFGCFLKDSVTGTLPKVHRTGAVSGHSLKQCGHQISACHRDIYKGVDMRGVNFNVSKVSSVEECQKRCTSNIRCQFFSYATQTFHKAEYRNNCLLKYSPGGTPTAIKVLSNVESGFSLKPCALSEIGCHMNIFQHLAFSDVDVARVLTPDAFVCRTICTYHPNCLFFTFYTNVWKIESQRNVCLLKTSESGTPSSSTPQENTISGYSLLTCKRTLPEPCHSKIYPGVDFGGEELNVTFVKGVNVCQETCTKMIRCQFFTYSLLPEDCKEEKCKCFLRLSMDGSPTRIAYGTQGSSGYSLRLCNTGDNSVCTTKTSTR
Sequence of Factor XIa (P03951 388-625 limits assumed): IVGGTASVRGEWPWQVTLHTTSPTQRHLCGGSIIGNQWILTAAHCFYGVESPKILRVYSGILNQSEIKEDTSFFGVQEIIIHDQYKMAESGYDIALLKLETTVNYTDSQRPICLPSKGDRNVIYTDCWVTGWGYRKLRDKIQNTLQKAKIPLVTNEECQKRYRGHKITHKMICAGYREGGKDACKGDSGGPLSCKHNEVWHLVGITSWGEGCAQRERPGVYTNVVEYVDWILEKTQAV
Sequence of Factor XIa (P03951 19-387 partner limits assumed): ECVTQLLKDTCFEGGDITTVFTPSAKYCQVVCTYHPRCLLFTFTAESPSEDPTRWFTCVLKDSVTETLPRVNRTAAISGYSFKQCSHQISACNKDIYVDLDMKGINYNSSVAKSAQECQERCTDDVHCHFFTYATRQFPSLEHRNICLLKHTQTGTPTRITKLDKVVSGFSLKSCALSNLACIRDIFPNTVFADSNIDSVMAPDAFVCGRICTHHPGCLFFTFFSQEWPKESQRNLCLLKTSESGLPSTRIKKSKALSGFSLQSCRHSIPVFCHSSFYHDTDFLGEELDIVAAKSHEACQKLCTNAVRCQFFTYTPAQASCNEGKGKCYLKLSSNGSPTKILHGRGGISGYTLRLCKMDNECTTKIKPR

IC50 [1] [nM]	IC50 [2] [nM]	SMILES
31.3	11	CO[C@@H]1C[C@@H](C(=O)Nc2ccc3n[nH]cc3c2)N2C(=O)C=C(c3c(-n4cnnn4)ccc(Cl)c3F)CC12 (mixture of isomers) [ID No. 43, (1R,3S)-7-[3-Chloro-2-fluoro-6-(tetrazol-1-yl)phenyl]-N-(2H-indazol-5-yl)-1-methoxy-5-oxo-2,3,8,8a-tetrahydro-1H-indolizine-3-carboxamide]
570	> 50	CC1C(=O)Nc2c(NC(=O)[C@@H]3CC[C@@H]4CC(c5c(-n6cc(C(F)(F)F)nn6)ccc(Cl)c5F)=CC(=O)N43)cccc21 (some centres unmarked) [compound 102]
120	> 50	Cn1nc2ccc(NC(=O)C3CCC4CC(c5c(-n6cc(Cl)nn6)ccc(Cl)c5F)=CC(=O)N43)cc2n1 (centres unmarked) [compound 105]
160	> 50	CN(C)c1ccnc2ccc(NC(=O)C3CCC4CC(c5c(-n6cc(Cl)nn6)ccc(Cl)c5F)=CC(=O)N43)cc12 (centres unmarked) [compound 88]
40.7	2	O=C(Nc1ccc(-c2ncc[nH]2)cc1)[C@@H]1CCC2CC(c3c(-n4cnnn4)ccc(Cl)c3F)=CC(=O)N21 (mixture of isomers) [ID No. 74, (3S)-7-[3-Chloro-2-fluoro-6-(tetrazol-1-yl)phenyl]-N-[4-(1H-imidazol-2-yl)phenyl]-5-oxo-2,3,8,8a-tetrahydro-1H-indolizine-3-carboxamide]
169	39.4	Cn1cc2cc(NC(=O)[C@@H]3CC[C@@H]4CC(c5c(-n6cnnn6)ccc(Cl)c5F)=CC(=O)N43)ccc2n1 [ID No. 19, (3S,8aR)-7-(3-Chloro-2-fluoro-6-(1H-tetrazol-1-yl)phenyl)-N-(2-methyl-2H-indazol-5-yl)-5-oxo-1,2,3,5,8,8a-hexahydroindolizine-3-carboxamide]
156	46	Cn1nncc1-c1ccc(NC(=O)[C@@H]2CCC3CC(c4c(-n5cnnn5)ccc(Cl)c4F)=CC(=O)N32)cc1 (mixture of isomers) [ID No. 71, (3S)-7-[3-Chloro-2-fluoro-6-(tetrazol-1-yl)phenyl]-N-[4-(3-methyltriazol-4-yl)phenyl]-5-oxo-2,3,8,8a-tetrahydro-1H-indolizine-3-carboxamide]
20.4	0.7	O=C(Nc1ccc(-c2nnn[nH]2)cc1)[C@@H]1CCC2CC(c3c(-n4cnnn4)ccc(Cl)c3F)=CC(=O)N21 (mixture of isomers) [ID No. 72, (3S)-7-[3-Chloro-2-fluoro-6-(tetrazol-1-yl)phenyl]-5-oxo-N-[4-(1H-tetrazol-5-yl)phenyl]-2,3,8,8a-tetrahydro-1H-indolizine-3-carboxamide]
431	~189	CO[C@H]1C[C@@H](C(=O)Nc2ccc3nccnc3c2)N2C(=O)C=C(c3c(-n4cnnn4)ccc(Cl)c3F)CC12 (mixture of isomers) [ID No. 28, (1S,3S)-7-[3-Chloro-2-fluoro-6-(tetrazol-1-yl)phenyl]-1-methoxy-5-oxo-N-quinoxalin-6-yl-2,3,8,8a-tetrahydro-1H-indolizine-3-carboxamide]
52.6	8.9	Nc1noc2cc(NC(=O)[C@@H]3CCC4CC(c5c(-n6cnnn6)ccc(Cl)c5F)=CC(=O)N43)ccc12 (single isomer, unassigned) [ID No. 61, (3S,8aS*)—N-(3-Amino-1,2-benzoxazol-6-yl)-7-[3-chloro-2-fluoro-6-(tetrazol-1-yl)phenyl]-5-oxo-2,3,8,8a-tetrahydro-1H-indolizine-3-carboxamide]
9.7	5	C[C@@H](O)c1cnc2cc(NC(=O)[C@@H]3CCC4CC(c5c(-n6cnnn6)ccc(Cl)c5F)=CC(=O)N43)ccc2n1 (relative stereo) [ID No. 1, (3S*)-7-(3-chloro-2-fluoro-6-(1H-tetrazol-1-yl)phenyl)-N-(2-((R*)-1-hydroxyethyl)quinoxalin-6-yl)-5-oxo-1,2,3,5,8,8a-hexahydroindolizine-3-carboxamide]
10	0.3	O=C(Nc1ccc(-c2nc(=O)o[nH]2)c(F)c1)[C@@H]1CCC2CC(c3c(-n4cnnn4)ccc(Cl)c3F)=CC(=O)N21 (mixture of isomers) [ID No. 42, (3S)-7-[3-Chloro-2-fluoro-6-(tetrazol-1-yl)phenyl]-N-[3-fluoro-4-(5-oxo-2H-1,2,4-oxadiazol-3-yl)phenyl]-5-oxo-2,3,8,8a-tetrahydro-1H-indolizine-3-carboxamide]
38.8	82.9	CC1(C)C[C@@H](C(=O)Nc2ccc3nccnc3c2)N2C(=O)C=C(c3c(-n4cnnn4)ccc(Cl)c3F)CC21 (single isomer, unassigned) [ID No. 59, (3S,8aR*)-7-[3-Chloro-2-fluoro-6-(tetrazol-1-yl)phenyl]-1,1-dimethyl-5-oxo-N-quinoxalin-6-yl-2,3,8,8a-tetrahydroindolizine-3-carboxamide]
52.3	7.3	O=C(Nc1ccc(-c2nc[nH]n2)cc1)[C@@H]1CCC2CC(c3c(-n4cnnn4)ccc(Cl)c3F)=CC(=O)N21 (mixture of isomers) [ID No. 69, (3S)-7-[3-Chloro-2-fluoro-6-(tetrazol-1-yl)phenyl]-5-oxo-N-[4-(1H-1,2,4-triazol-3-yl)phenyl]-2,3,8,8a-tetrahydro-1H-indolizine-3-carboxamide]
8	7.9	CC1C[C@@H](C(=O)Nc2ccc3ncccc3c2)N2C(=O)C=C(c3c(-n4cnnn4)ccc(Cl)c3F)CC12 (mixture of isomers) [ID No. 82, (3S)-7-[3-Chloro-2-fluoro-6-(tetrazol-1-yl)phenyl]-1-methyl-5-oxo-N-(6-quinolyl)-2,3,8,8a-tetrahydro-1H-indolizine-3-carboxamide]
149	2.5	O=C(O)c1ccc(NC(=O)[C@@H]2CCC3CC(c4c(-n5cnnn5)ccc(Cl)c4F)=CC(=O)N32)cc1F (single isomer, unassigned) [ID No. 51, (3S,8aS*)-4-[[7-[3-Chloro-2-fluoro-6-(tetrazol-1-yl)phenyl]-5-oxo-2,3,8,8a-tetrahydro-1H-indolizine-3-carbonyl]amino]-2-fluoro-benzoic acid]
56.2	11.1	O=C(Nc1ccc2nc[nH]c2c1)[C@@H]1CCC2CC(c3c(-n4cnnn4)ccc(Cl)c3F)=CC(=O)N21 (mixture of isomers) [ID No. 53, (3S)—N-(1H-benzo[d]imidazol-6-yl)-7-(3-chloro-2-fluoro-6-(1H-tetrazol-1-yl)phenyl)-5-oxo-1,2,3,5,8,8a-hexahydroindolizine-3-carboxamide]
27	17.8	CC1C[C@@H](C(=O)Nc2ccc3nn(C)cc3c2)N2C(=O)C=C(c3c(-n4cnnn4)ccc(Cl)c3F)CC12 (mixture of isomers) [ID No. 83, (3S)-7-[3-Chloro-2-fluoro-6-(tetrazol-1-yl)phenyl]-1-methyl-N-(2-methyl-2H-indazol-5-yl)-5-oxo-2,3,8,8a-tetrahydro-1H-indolizine-3-carboxamide]
20.2	16.6	O=C(Nc1ccc2nccc(O)c2c1)[C@@H]1CC[C@@H]2CC(c3c(-n4cnnn4)ccc(Cl)c3F)=CC(=O)N21 [ID No. 9, (3S,8aR)-7-(3-Chloro-2-fluoro-6-(1H-tetrazol-1-yl)phenyl)-N-(4-hydroxyquinolin-6-yl)-5-oxo-1,2,3,5,8,8a-hexahydroindolizine-3-carboxamide]
